How the values were obtained:
MnSOD [1] = experiment: MnSOD activity in primary neurons (modified commercial kit); type: cell-based; details: 3 mM SYN1 or 300 nM SYN2 for 24 h
Procedure: (§1) FIGS. 4A-4F. SYN1 and SYN2 increase the expression and activity of NF-κB target genes, such as MnSOD in neurons. […] A commercially available kit, modified to detect MnSOD activity in primary neurons, was used. Neurons were exposed to 3 mM SYN1 or 300 nM SYN2 for 24 h. […] TNF-α was included as a reference. FIGS. 4B, 4D and 4F show SYN1 and SYN2 increase MnSOD protein expression. Mature primary neurons (FIG. 4B), SH-SY5Y cells (FIG. 4D), and NSC-34 cells (FIG. 4F) were treated for 24 h with the compounds. Thereafter, cells were lysed, and proteins were extracted and subjected to SDS-PAGE. Immunoblots were then performed following the instructions of the antibody manufacturer. ECL was used for detection. […] The effect of TNF exposure is provided for reference. […] Primary cortical neurons at 6 D.I.V. were pretreated for 24 h with compounds and then challenged with 80 μM of H2O2. […] SYN1 at 3 μM inhibited cell death by 100%. […] The protection exceeded 60% and extended up to a concentration of 1 μM. […] NSC-34 cells were treated for 24 h with the compounds. Thereafter, cells were lysed, and cytosolic and nuclear fractions were separated. Subsequently, SDS-PAGE and immunoblots were performed. ECL was used for detection. […] The effect of TNF exposure was provided for reference. […] ANOVA+Bonferroni's.

MnSOD [2] = experiment: MnSOD protein expression by immunoblot in neurons; type: cell-based; details: 24 h; for MnSOD expression by Western blot: NSC-34 cells; for MnSOD protein expression: mature primary neurons, SH-SY5Y cells and NSC-34 cells
Procedure: as §1

Primary cortical neurons = experiment: Neurotoxicity induced by H2O2 in primary cortical neurons; type: cell-based; details: 24 h pretreatment, 80 μM H2O2
Procedure: as §1

NF-κB p65 = NF-κB p65 nuclear translocation in NSC-34 immortalized motoneurons, immunoblot; type: cell-based; details: NSC-34 cells, 24 h
Procedure: as §1

HSP-dependent mRNAs = experiment: Cytoplasmic chaperone expression by qPCR in SH-5YSY; type: cell-based; details: 24 h treatment
Procedure: (§2) FIG. 5. Effect of SYN1 on cytoplasmic chaperones expression. The expression of the genes listed in the graph was assessed using qPCR in SH-5YSY after 24 h treatment with SYN1.

HSP27 = experiment: as above; type: cell-based; details: 24 h treatment
Procedure: as §2

HSP70-2 = experiment: as above; type: cell-based; details: 24 h treatment
Procedure: as §2

SOD-1-G93A ALS mouse = experiment: SOD-1-G93A ALS mouse: survival, weight, neurologic score; type: in vivo; details: for survival (Kaplan-Meier analysis): administration at the time of onset; for body weight lost / inhibition of body weight loss: at 120 days; for inhibition of body weight loss: versus control animals; for lifespan extension at 50% survival: male mice, 25 mg/kg IP daily from day 96
Procedure: FIGS. 6A-6D. Effect of SYN1 and SYN2 in SOD-1-G93A ALS mouse. The animals were received at day 70 and kept until day 96, at which time daily IP treatment was started with 25 mg/kg of the compounds. Weight and standard neurologic scores (N.S.) were assessed on alternate days. A N.S. of 4 triggered the exception (euthanized accordingly to humane practices). […] Data in FIGS. 6A and 6B document a 66% and an 81% lifespan extension for SYN1 and SYN2, respectively, at 50% survival in male mice. […] The average weight within the groups before the treatment was similar (inset to FIG. 6C). However, at 120 days, control animals lost on average 12% of the body weight (FIG. 6C). […] Although progression from N.S. 0 to 1 was delayed only by SYN1 (2 day delay, +30%), progression to higher N.S. was delayed by both agents (FIG. 6D). […] Control animals reached N.S.=2 at 30 days on average; treated animals reached N.S.=2 at day 46 or later on average. *P<0.05; **P<0.01.

| Compound | MnSOD activity (MnSOD [1]) | MnSOD expression by Western blot (MnSOD [2]) | MnSOD protein expression (MnSOD [2]) | inhibition of cell death (Primary cortical neurons; 3 μM) | p65 nuclear presence (NF-κB p65) | HSP-dependent mRNAs (HSP-dependent mRNAs) | HSP27 gene expression (HSP27) | HSP70-2 gene expression (HSP70-2) | delay of progression from N.S. 0 to 1 (SOD-1-G93A ALS mouse; 25 mg/kg IP daily) | delay of progression from N.S. 0 to 1, relative (SOD-1-G93A ALS mouse; 25 mg/kg IP daily) | time spent at N.S.1 (SOD-1-G93A ALS mouse; 25 mg/kg IP daily) | survival (Kaplan-Meier analysis) (SOD-1-G93A ALS mouse; 25 mg/kg IP daily) | body weight lost (SOD-1-G93A ALS mouse; 25 mg/kg IP daily) | inhibition of body weight loss (SOD-1-G93A ALS mouse) | lifespan extension at 50% survival (SOD-1-G93A ALS mouse) | concentration of peak effect (Primary cortical neurons) | concentration up to which protection extended (Primary cortical neurons) | protection (Primary cortical neurons) |
| --- | --- | --- | --- | --- | --- | --- | --- | --- | --- | --- | --- | --- | --- | --- | --- | --- | --- | --- |
| O=C(/C=C/Nc1ccccc1Br)c1ccc2c(c1)OCO2 [SYN1] | significantly increased | increased expression of MnSOD | increased MnSOD expression in all three kinds of neurons | 100% | increased p65 nuclear presence | significantly increased | significantly up-regulated | significantly up-regulated | 2 days | 30% | increased the time spent at N.S.1 | significantly extended survival | 3% | 75% | 66% | – | – | – |
| Cc1cccnc1Nc1nc(-c2ccccn2)cs1 [SYN2] | significantly increased | increased expression of MnSOD | increased MnSOD expression in all three kinds of neurons | – | increased p65 nuclear presence | – | – | – | – | – | increased the time spent at N.S.1 | significantly extended survival | 4% | 65% | 81% | 300 nM | ≤ 1 µM | exceeded 60% |
